The text below walks through data of US20080262040A1, “Chemical Compounds” (SMITHKLINE BEECHAM CORPORATION, priority 2005, published 2008).

Each structure is given as a SMILES string. A value given as a limit tells only on which side of the number the result lay.

The assay deals with T1, Recombinant human IKKβ (residues 1-737) (IKK2) (Homo sapiens, UniProt O14920).
T1 construct: Recombinant human IKKβ (residues 1-737) was expressed in baculovirus; GST (C); made in house
T1 sequence (O14920 1-737): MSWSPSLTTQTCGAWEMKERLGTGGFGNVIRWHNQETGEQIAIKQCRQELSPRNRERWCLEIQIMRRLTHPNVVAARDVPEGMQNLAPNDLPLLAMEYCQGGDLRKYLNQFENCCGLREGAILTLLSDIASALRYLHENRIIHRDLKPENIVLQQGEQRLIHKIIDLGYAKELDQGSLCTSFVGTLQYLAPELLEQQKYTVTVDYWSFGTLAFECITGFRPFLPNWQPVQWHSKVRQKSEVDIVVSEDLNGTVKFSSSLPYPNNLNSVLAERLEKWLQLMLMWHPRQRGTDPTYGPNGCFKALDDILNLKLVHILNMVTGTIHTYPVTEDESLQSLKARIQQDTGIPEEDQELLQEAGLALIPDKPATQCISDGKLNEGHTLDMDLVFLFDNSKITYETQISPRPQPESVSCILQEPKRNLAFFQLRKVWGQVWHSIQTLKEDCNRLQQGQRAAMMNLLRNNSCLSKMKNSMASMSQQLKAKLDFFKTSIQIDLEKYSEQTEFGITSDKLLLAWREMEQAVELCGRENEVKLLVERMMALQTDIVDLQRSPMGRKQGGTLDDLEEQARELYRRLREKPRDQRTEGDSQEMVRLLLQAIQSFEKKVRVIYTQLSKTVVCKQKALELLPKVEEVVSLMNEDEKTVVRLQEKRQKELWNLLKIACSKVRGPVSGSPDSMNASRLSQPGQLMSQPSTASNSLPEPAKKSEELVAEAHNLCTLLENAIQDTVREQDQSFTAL
The assay is described as follows: IKK2 TR-FRET assay. In kind it is biochemical. To be noted: IKK2 5 nM, GST-IκBα 25 nM, ATP 1 μM, 30 minutes at room temperature, read-out: pIC50 against IKK2 (converted). As for the experimental part: Recombinant human IKKβ (residues 1-737) was expressed in baculovirus as a C-terminal GST-tagged fusion protein, and its activity was assessed using a time-resolved fluorescence resonance energy transfer (TR-FRET) assay. Briefly, IKK2 (5 nM final) diluted in assay buffer (50 mM HEPES, 10 mM MgCl2, 1 mM CHAPS pH 7.4 with 1 mM DTT and 0.01% w/v BSA) was added to wells containing various concentrations of compound or DMSO vehicle (3% final). The reaction was initiated by the addition of GST-IκBα substrate (25 nM final)/ATP (1 μM final), in a total volume of 30 μl. The reaction was incubated for 30 minutes at room temperature, then terminated by the addition of 15 μl of 50 mM EDTA. Detection reagent (15 μl) in buffer (100 mM HEPES pH 7.4, 150 mM NaCl and 0.1% w/v BSA) containing antiphosphoserine-IκBα-32/36 monoclonal antibody 12C2 (Cell Signalling Technology, Beverly Mass., USA) labelled with W-1024 europium chelate (Wallac O Y, Turku, Finland), and an APC-labelled anti-GST antibody (Prozyme, San Leandro, Calif., USA) was added and the reaction was further incubated for 60 minutes at room temperature. The degree of phosphorylation of GST-IκBα was measured using a Packard Discovery plate reader (Perkin-Elmer Life Sciences, Pangbourne, UK) as a ratio of specific 665 nm energy transfer signal to reference europium 620 nm signal.
For orientation: TR-FRET usually uses a lanthanide donor and a delayed reading to cut background.

`CC(C)(C)OC(=O)N1CCC(n2ncc3c(C(N)=O)cc(-c4ccccc4)cc32)CC1` [Example 1, 1,1-dimethylethyl-4-[4-(aminocarbonyl)-6-phenyl-1H-indazol-1-yl]-1-piperidinecarboxylate]: the IC50 was no more than 10 µM.

On to `NC(=O)c1cc(-c2ccccc2)cc2c1cnn2C1CCNCC1` [Example 2, 6-phenyl-1-(4-piperidinyl)-1H-indazole-4-carboxamide], for which the IC50 is no more than 10 µM.

On to `NC(=O)c1cc(-c2ccccc2)cc2[nH]ncc12` [Example 3, 6-phenyl-1H-indazole-4-carboxamide], for which the IC50 is no more than 10 µM. Consider `NC(=O)c1cc(-c2ccccc2)cc2c1cnn2C1CCN(S(=O)(=O)c2ccc(F)cc2)CC1` [Example 4, 1-{1-[(4-fluorophenyl)sulfonyl]-4-piperidinyl}-6-phenyl-1H-indazole-4-carboxamide], for which the IC50 is no more than 10 µM.

On to `Cn1cnc(S(=O)(=O)N2CCC(n3ncc4c(C(N)=O)cc(-c5ccccc5)cc43)CC2)c1` [Example 5, 1-{1-[(1-methyl-1H-imidazol-4-yl)sulfonyl]-4-piperidinyl}-6-phenyl-1H-indazole-4-carboxamide], for which the IC50 is no more than 10 µM. As for `CCC(=O)N1CCC(n2ncc3c(C(N)=O)cc(-c4ccccc4)cc32)CC1` [Example 6, 6-phenyl-1-(1-propanoyl-4-piperidinyl)-1H-indazole-4-carboxamide], the IC50 is no more than 10 µM. In the case of `CCS(=O)(=O)N1CCC(n2ncc3c(C(N)=O)cc(-c4ccccc4)cc32)CC1` [Example 7, 1-[1-(ethylsulfonyl)-4-piperidinyl]-6-phenyl-1H-indazole-4-carboxamide] it was no more than 10 µM. `NC(=O)c1cc(-c2ccccc2)cc2c1cnn2C1CCN(C(=O)c2ccccc2)CC1` [Example 8, 6-phenyl-1-[1-(phenylcarbonyl)-4-piperidinyl]-1H-indazole-4-carboxamide]: the IC50 was no more than 10 µM.

Take `NC(=O)c1cc(-c2ccccc2)cc2c1cnn2C1CCN(S(=O)(=O)c2ccccc2)CC1` [Example 9, 6-phenyl-1-[1-(phenylsulfonyl)-4-piperidinyl]-1H-indazole-4-carboxamide]: the IC50 is no more than 10 µM. `CC(C)(C)OC(=O)N1CCCC(n2ncc3c(C(N)=O)cc(-c4ccccc4)cc32)C1` (stereo not shown) [Example 12, 1,1-dimethylethyl-3-[4-(aminocarbonyl)-6-phenyl-1H-indazol-1-yl]-1-piperidinecarboxylate]: the IC50 is no more than 10 µM. Turning to `CCS(=O)(=O)N1CCCC(n2ncc3c(C(N)=O)cc(-c4ccccc4)cc32)C1` (stereo not shown) [Example 14, 1-[1-(ethylsulfonyl)-3-piperidinyl]-6-phenyl-1H-indazole-4-carboxamide], the IC50 is no more than 10 µM.

For `Cn1cnc(S(=O)(=O)N2CCCC(n3ncc4c(C(N)=O)cc(-c5ccccc5)cc43)C2)c1` (stereo not shown) [Example 15, 1-{1-[(1-methyl-1H-imidazol-4-yl)sulfonyl]-3-piperidinyl}-6-phenyl-1H-indazole-4-carboxamide], the IC50 was greater than 15.8 µM.

As for `CCC(=O)N1CCCC(n2ncc3c(C(N)=O)cc(-c4ccccc4)cc32)C1` (stereo not shown) [Example 16, 6-phenyl-1-(1-propanoyl-3-piperidinyl)-1H-indazole-4-carboxamide], the IC50 is greater than 15.8 µM. For the molecule `NC(=O)c1cc(-c2ccccc2)cc2c1cnn2C1CCCN(C(=O)c2ccccc2)C1` (stereo not shown) [Example 17, 6-phenyl-1-[1-(phenylcarbonyl)-3-piperidinyl]-1H-indazole-4-carboxamide], the IC50 was greater than 15.8 µM. For `NC(=O)c1cc(-c2ccccc2)cc2c1cnn2C1CCCN(S(=O)(=O)c2ccccc2)C1` (stereo not shown) [Example 18, 6-phenyl-1-[1-(phenylsulfonyl)-3-piperidinyl]-1H-indazole-4-carboxamide], the IC50 is greater than 15.8 µM. As for `NC(=O)c1cc(-c2ccccc2)cc2c1cnn2C1CCCN(S(=O)(=O)c2ccc(F)cc2)C1` (stereo not shown) [Example 19, 1-{1-[(4-fluorophenyl)sulfonyl]-3-piperidinyl}-6-phenyl-1H-indazole-4-carboxamide], the IC50 was greater than 15.8 µM.
